Test results reported in ChEMBL document CHEMBL3997802, “Design, Synthesis, and Evaluation of Isaindigotone Derivatives To Downregulate c-myc Transcription via Disrupting the Interaction of NM23-H2 with G-Quadruplex” (J Med Chem, 2017).
The source made the active and inactive calls. The rule behind the calls is not given here.

Legend:
[1] = Transrepression of c-Myc MUT Pu43 DNA (unknown origin) expressed in human SiHa cells up to 2.2 uM after 48 hrs by luciferase reporter gene assay relative to control; format: cell-based
[2] = target: T1, Cellular tumor antigen p53 (Mus musculus, UniProt P02340); assay: Effect on p53 phosphorylation in mouse primary mesangial cells up to 2.2 uM by Western blot method; format: ADME
[3] = species: Homo sapiens; assay: Inhibition of NM23-H2 binding to c-Myc G-quadruplex DNA in human SiHa cells assessed as effect on p27Kip1 protein expression by Western blot method; format: cell-based
[4] = tested on: SiHa; assay: Effect on NM23-H2 mRNA level in human SiHa cells up to 2.2 uM after 4 days by RT-PCR method; format: functional, cell-based
[5] = Stabilization of 5'-FAM/3'-TAMRA labeled c-Myc Pu18 G-quadruplex DNA (unknown origin) assessed as change in melting temperature at 1 uM after overnight incubation by FRET assay
[6] = species: Homo sapiens; assay: Inhibition of NM23-H2 binding to c-Myc promoter DNA in human SiHa cell nuclear extract after 4 days by ChIP analysis
[7] = species: Homo sapiens; assay: Inhibition of NM23-H2 binding to c-Myc G-quadruplex DNA in human SiHa cells assessed as downregulation of c-Myc protein expression at 0.5 times cytotoxic IC50 after 4 days by Western blot method; format: cell-based
[8] = Effect on CDK6 protein expression in mouse primary mesangial cells up to 2.2 uM by Western blot method; format: ADME, cell-based; settings: primary mesangial cell
[9] = tested on: SiHa; assay: Effect on NM23-H2 protein expression in human SiHa cells up to 2.2 uM after 4 days by Western blot method; format: functional, cell-based
[10] = tested on: SiHa; assay: Cytotoxicity against human SiHa cells assessed as reduction in cell viability up to 2.2 uM after 48 hrs by MTT assay; format: cell-based
[11] = Transrepression of c-Myc Pu43 G-quadruplex DNA (unknown origin) expressed in human SiHa cells after 48 hrs by luciferase reporter gene assay; format: cell-based
[12] = Inhibition of thiazole orange binding to c-Myc Pu18 G-quadruplex DNA (unknown origin) at 10 uM after 30 secs by fluorescence spectrophotometric method
[13] = species: Homo sapiens; assay: Inhibition of NM23-H2 binding to c-Myc G-quadruplex DNA in human SiHa cells assessed as effect on cyclin D3 protein expression by Western blot method; format: cell-based
[14] = tested on: SiHa; assay: Inhibition of colony formation in human SiHa cells up to 1.1 uM after 7 days by crystal violet staining based assay; format: functional, cell-based
[15] = species: Homo sapiens; assay: Inhibition of NM23-H2 binding to c-Myc G-quadruplex DNA in human SiHa cells assessed as effect on phosphorylated p53 protein expression by Western blot method; format: cell-based
[16] = species: Homo sapiens; assay: Inhibition of NM23-H2 binding to c-Myc G-quadruplex DNA in human SiHa cells assessed as effect on p15 protein expression by Western blot method; format: cell-based
[17] = species: Homo sapiens; assay: Inhibition of NM23-H2 binding to c-Myc G-quadruplex DNA in human SiHa cells assessed as effect on cleaved PARP protein expression by Western blot method; format: cell-based
[18] = Transrepression of c-Myc Pu43 G-quadruplex DNA (unknown origin) expressed in human SiHa cells at 1.65 uM after 48 hrs by luciferase reporter gene assay relative to control; format: cell-based
[19] = Induction of G-quadruplex formation in wild type c-Myc Pu43 DNA (unknown origin) in pH 7.4 Tris HCl at 25 uM after overnight incubation in absence of Kcl by CD spectroscopic analysis
[20] = Transrepression of c-Myc Pu43 G-quadruplex DNA (unknown origin) expressed in human SiHa cells at 1.1 uM after 48 hrs by luciferase reporter gene assay relative to control; format: cell-based
[21] = Transrepression of c-Myc Pu43 G-quadruplex DNA (unknown origin) expressed in human SiHa cells at 2.2 uM after 48 hrs by luciferase reporter gene assay relative to control; format: cell-based
[22] = Inhibition of 5'-biotin-labeled c-Myc Pu18 G-quadruplex DNA (unknown origin) interaction with His-tagged NM23-H2 assessed as ratio of Kd for NM23-H2-DNA complex in presence of compound to Kd for […]-DNA complex in absence of compound at 20 uM preincubated with NM23-H2 for 1 hr followed by addition of DNA measured after overnight incubation by ELISA
[23] = species: Homo sapiens; assay: Inhibition of NM23-H2 binding to c-Myc G-quadruplex DNA in human SiHa cells assessed as downregulation of c-Myc mRNA level after 4 days by RT-PCR method; format: cell-based
[24] = species: Homo sapiens; assay: Inhibition of NM23-H2 binding to c-Myc G-quadruplex DNA in human SiHa cells assessed as effect on cleaved caspase-3 protein expression by Western blot method; format: cell-based
[25] = Effect on BRCA1 protein expression in mouse primary mesangial cells up to 2.2 uM by Western blot method; format: ADME, cell-based; settings: primary mesangial cell
[26] = Inhibition of thiazole orange binding to c-Myc Pu27 G-quadruplex DNA (unknown origin) at 10 uM after 30 secs by fluorescence spectrophotometric method
[27] = Effect on cleaved caspase-3 protein expression in mouse primary mesangial cells up to 2.2 uM by Western blot method; format: ADME, cell-based; settings: primary mesangial cell
[28] = Growth inhibition of mouse primary mesangial cells at 0.25 to 1 times cytotoxic IC50 after 100 hrs by real time cellular analysis; format: cell-based; settings: primary mesangial cell
[29] = tested on: SiHa; assay: Growth inhibition of human SiHa cells after 40 hrs by real time cellular analysis; format: functional, cell-based
[30] = species: Homo sapiens; assay: Transrepression of c-Myc G-quadruplex DNA in human SiHa cells at 2.2 uM after 96 hrs by DAPI staining based immunofluoresence microscopic method; format: cell-based
[31] = Effect on c-Myc protein expression in mouse primary mesangial cells up to 2.2 uM by Western blot method; format: ADME, cell-based; settings: primary mesangial cell
[32] = Effect on NM23-H2 protein expression in mouse primary mesangial cells up to 2.2 uM by Western blot method; format: ADME, cell-based; settings: primary mesangial cell
[33] = species: Homo sapiens; assay: Inhibition of NM23-H2 binding to c-Myc G-quadruplex DNA in human SiHa cells assessed as effect on BRCA1 protein expression by Western blot method; format: cell-based
[34] = tested on: SiHa; assay: Growth inhibition of human SiHa cells transfected with NM23-H2 siRNA up to 4.4 uM after 100 hrs by real time cellular analysis; format: functional, cell-based
[35] = Inhibition of His-tagged NM23-H2 binding to 5'-biotin-labeled c-Myc Pu18 ssDNA (unknown origin) after 10 mins by filter binding assay
[36] = species: Homo sapiens; assay: Transrepression of c-Myc G-quadruplex DNA in human SiHa cells at 8 uM after 96 hrs by DAPI staining based immunofluoresence microscopic method; format: cell-based
[37] = tested on: SiHa; assay: Inhibition of colony formation in human SiHa cells up to 4 uM after 7 days by crystal violet staining based assay; format: functional, cell-based
[38] = Transrepression of c-Myc Pu43 G-quadruplex DNA (unknown origin) expressed in human SiHa cells at 8 uM after 48 hrs by luciferase reporter gene assay relative to control; format: cell-based
[39] = Inhibition of His-tagged NM23-H2 binding to 5'-biotin-labeled c-Myc Pu18 G-quadruplex DNA (unknown origin) after 10 mins by filter binding assay
[40] = Effect on NM23-H2 protein expression in mouse primary mesangial cells up to 8 uM by Western blot method; format: ADME, cell-based; settings: primary mesangial cell
[41] = Effect on BRCA1 protein expression in mouse primary mesangial cells up to 8 uM by Western blot method; format: ADME, cell-based; settings: primary mesangial cell
[42] = Effect on CDK6 protein expression in mouse primary mesangial cells up to 8 uM by Western blot method; format: ADME, cell-based; settings: primary mesangial cell
[43] = Transrepression of c-Myc Pu43 G-quadruplex DNA (unknown origin) expressed in human SiHa cells at 6 uM after 48 hrs by luciferase reporter gene assay relative to control; format: cell-based
[44] = Effect on c-Myc protein expression in mouse primary mesangial cells up to 8 uM by Western blot method; format: ADME, cell-based; settings: primary mesangial cell
[45] = tested on: SiHa; assay: Cytotoxicity against human SiHa cells assessed as reduction in cell viability up to 8 uM after 48 hrs by MTT assay; format: cell-based
[46] = target: T1, Cellular tumor antigen p53; assay: Effect on p53 phosphorylation in mouse primary mesangial cells up to 8 uM by Western blot method; format: ADME
[47] = Transrepression of c-Myc MUT Pu43 DNA (unknown origin) expressed in human SiHa cells up to 8 uM after 48 hrs by luciferase reporter gene assay relative to control; format: cell-based
[48] = tested on: SiHa; assay: Growth inhibition of human SiHa cells transfected with NM23-H2 siRNA up to 16 uM after 100 hrs by real time cellular analysis; format: functional, cell-based
[49] = Inhibition of unwinding activity of His-tagged NM23-H2 to 5'-FAM/3'-TAMRA labeled c-Myc Pu18 G-quadruplex DNA (unknown origin) by FRET assay
[50] = tested on: SiHa; assay: Growth inhibition of human SiHa cells after 50 hrs by real time cellular analysis; format: functional, cell-based
[51] = tested on: SiHa; assay: Effect on NM23-H2 mRNA level in human SiHa cells up to 8 uM after 4 days by RT-PCR method; format: functional, cell-based
[52] = Effect on cleaved caspase-3 protein expression in mouse primary mesangial cells up to 8 uM by Western blot method; format: ADME, cell-based; settings: primary mesangial cell
[53] = Transrepression of c-Myc Pu43 G-quadruplex DNA (unknown origin) expressed in human SiHa cells at 4 uM after 48 hrs by luciferase reporter gene assay relative to control; format: cell-based
[54] = tested on: SiHa; assay: Effect on NM23-H2 protein expression in human SiHa cells up to 8 uM after 4 days by Western blot method; format: functional, cell-based

T1 sequence (P02340 whole entry): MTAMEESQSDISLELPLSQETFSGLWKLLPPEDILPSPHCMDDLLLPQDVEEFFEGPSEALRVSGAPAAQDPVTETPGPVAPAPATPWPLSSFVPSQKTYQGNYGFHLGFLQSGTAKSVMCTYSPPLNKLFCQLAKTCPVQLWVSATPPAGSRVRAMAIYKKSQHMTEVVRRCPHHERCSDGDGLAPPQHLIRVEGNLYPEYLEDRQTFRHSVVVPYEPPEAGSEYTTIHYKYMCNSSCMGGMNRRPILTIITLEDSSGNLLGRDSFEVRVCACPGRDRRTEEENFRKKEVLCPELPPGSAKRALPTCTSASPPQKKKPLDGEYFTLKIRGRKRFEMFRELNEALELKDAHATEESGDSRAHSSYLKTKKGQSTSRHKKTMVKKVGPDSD

CCN(CC)CCNC(=O)c1ccc(/C=C2\CCn3c2nc2cc(NCCCN4CCCC4)c(F)cc2c3=O)cc1
Activity [1]: inactive | Activity [2]: Non-Toxic | inhibition [3]: Dose-dependent effect | Activity [4]: inactive | ΔTm [5]: 12.9 °C | inhibition [6]: Dose-dependent effect | inhibition [7]: Active | Activity [8]: Non-Toxic | Activity [9]: inactive | Activity [10]: Non-Toxic | Activity [11]: Dose-dependent effect | inhibition [12]: Active | inhibition [13]: Dose-dependent effect | inhibition [14]: Active | inhibition [15]: Dose-dependent effect | inhibition [16]: Dose-dependent effect | inhibition [17]: Dose-dependent effect | Activity [18]: 41.4% | Activity [19]: Active | Activity [20]: 65.7% | Activity [21]: 38% | Ratio [22]: 3.4 | inhibition [23]: Dose-dependent effect | inhibition [24]: Dose-dependent effect | Activity [25]: Non-Toxic | inhibition [26]: Active | Activity [27]: Non-Toxic | growth inhibition (GI) [28]: Non-Toxic | growth inhibition (GI) [29]: Dose-dependent effect | Activity [30]: Active | Activity [31]: Non-Toxic | Activity [32]: Non-Toxic | inhibition [33]: Dose-dependent effect | growth inhibition (GI) [34]: inactive

O=C(NCCCN1CCCC1)c1ccc(/C=C2\CCn3c2nc2cc(NCCN4CCCC4)c(F)cc2c3=O)cc1
inhibition [35]: Active | inhibition [3]: Dose-dependent effect | Activity [36]: Active | ΔTm [5]: 12.1 °C | inhibition [37]: Active | inhibition [6]: Dose-dependent effect | Activity [38]: 42.3% | inhibition [39]: Active | Activity [40]: Non-Toxic | inhibition [7]: Active | Activity [41]: Non-Toxic | Activity [42]: Non-Toxic | Activity [43]: 58.6% | Activity [11]: Dose-dependent effect | Activity [44]: Non-Toxic | inhibition [12]: Active | inhibition [13]: Dose-dependent effect | Activity [45]: Non-Toxic | inhibition [15]: Dose-dependent effect | inhibition [16]: Dose-dependent effect | Activity [46]: Non-Toxic | inhibition [17]: Dose-dependent effect | Activity [47]: inactive | Activity [19]: Active | growth inhibition (GI) [48]: inactive | inhibition [49]: Active | growth inhibition (GI) [50]: Dose-dependent effect | Ratio [22]: 4.3 | inhibition [23]: Dose-dependent effect | inhibition [24]: Dose-dependent effect | inhibition [26]: Active | Activity [51]: inactive | growth inhibition (GI) [28]: Non-Toxic | Activity [52]: Non-Toxic | Activity [53]: 73.4% | inhibition [33]: Dose-dependent effect | Activity [54]: inactive
